Results: patent publication US20230202982A1, “5-CHLORO-4-HYDROXY-1-METHYL-2-OXO-N-PHENYL-QUINOLINE-3-CARBOXAMIDE POTASSIUM SALT FOR TREATING INFLAMMATORY BOWEL DISEASES” (Aqilion AB, priority 2020, published 2023)

Tests used:
[1] = Slurry in water for 48 hours, re-examined by XRPD (disproportionation); format: physicochemical; settings: slurry in water 20 mg / 400 uL, ambient temperature, potassium salt
Protocol: When a sample of Example compound 1 was stored in a slurry in water at 20 mg / 400uL for 48 hours at ambient temperature, recovered, dried by evaporation and re-examined by XRPD, there was no change in the X-ray diffractogram.

[2] = target: T1, aryl hydrocarbon receptor (AhR) (Mus musculus, UniProt P30561); experiment: Activation of AhR in mice after oral administration, qPCR of CYP1A1; format: in vivo; settings: for Colon CYP1A1 (fold change over untreated), Mean / Liver CYP1A1 (fold change over untreated), Mean: day 14, C57Bl/6 mice
T1 construct: evaluated in a wild-type (WT) mice; from tissue; host or cells: colon and liver of wild-type mice, in vivo after oral dosing
T1 sequence (P30561 10-848): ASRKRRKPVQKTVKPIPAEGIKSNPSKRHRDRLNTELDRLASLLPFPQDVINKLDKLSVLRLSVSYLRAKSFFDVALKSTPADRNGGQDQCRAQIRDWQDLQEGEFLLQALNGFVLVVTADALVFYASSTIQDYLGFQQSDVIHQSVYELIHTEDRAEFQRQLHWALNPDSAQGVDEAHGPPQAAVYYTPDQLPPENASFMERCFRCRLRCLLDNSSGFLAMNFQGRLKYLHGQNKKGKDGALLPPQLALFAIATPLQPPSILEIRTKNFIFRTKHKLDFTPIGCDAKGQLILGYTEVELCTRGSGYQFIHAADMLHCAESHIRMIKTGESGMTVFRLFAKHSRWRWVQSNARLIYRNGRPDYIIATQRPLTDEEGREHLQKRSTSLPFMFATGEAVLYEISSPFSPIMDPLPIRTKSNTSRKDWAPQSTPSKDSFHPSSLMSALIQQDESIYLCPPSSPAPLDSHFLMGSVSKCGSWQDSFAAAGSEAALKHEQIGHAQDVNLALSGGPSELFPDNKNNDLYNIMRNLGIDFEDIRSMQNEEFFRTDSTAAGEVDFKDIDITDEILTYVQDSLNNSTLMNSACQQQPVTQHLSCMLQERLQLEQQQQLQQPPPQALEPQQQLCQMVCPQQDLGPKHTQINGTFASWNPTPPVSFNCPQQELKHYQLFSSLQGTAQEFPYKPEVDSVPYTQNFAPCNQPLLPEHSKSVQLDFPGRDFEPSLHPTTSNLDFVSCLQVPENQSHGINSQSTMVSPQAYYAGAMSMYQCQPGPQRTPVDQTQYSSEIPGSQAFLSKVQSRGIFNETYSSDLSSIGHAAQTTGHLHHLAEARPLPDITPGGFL
Protocol: The potential of the 5-chloro-4-hydroxy-1-methyl-2-oxo-N-phenyl-quinoline-3-carboxamide potassium salt (Example compound 1) to activate the aryl hydrocarbon receptor (AhR) in the colon following oral administration was evaluated in a wild-type (WT) mice.
On study day 0, animals were weighed and evenly distributed into treatment groups based on body weight.
On study day 14, animals were asphyxiated via CO2 inhalation followed by cervical dislocation. The entire colon was removed, collected and prepared for qPCR analysis of CYP1A1 (Normalized to GAPDH & ACTB).
The Example compound 1 was formulated as a 0.1 mg/ml, 0.01 mg/ml or 0.001 mg/ml suspension with sodium carboxymethyl cellulose (1%, w/v).

Structure (SMILES): Cn1c(=O)c(C(=O)Nc2ccccc2)c([O-])c2c(Cl)cccc21.[K+] [Example compound 1, 5-chloro-4-hydroxy-1-methyl-2-oxo-N-phenyl-quinoline-3-carboxamide potassium salt]
- Stability in water slurry: change in X-ray diffractogram ([1]; listed as 5-chloro-4-hydroxy-1-methyl-2-oxo-N-phenylquinoline-3-carboxamide potassium salt): stable when in a slurry
- Stability in water slurry: change in X-ray diffractogram [1]: no change
- Colon CYP1A1 (fold change over untreated), Mean ([2]; 0.01 mg/kg PO QD D0-13, colon): 1.03 fold change over untreated
- Liver CYP1A1 (fold change over untreated), Mean ([2]; 0.01 mg/kg PO QD D0-13, liver): 1.08 fold change over untreated
- Colon CYP1A1 (fold change over untreated), Mean ([2]; 0.1 mg/kg PO QD D0-13, colon): 7.42 fold change over untreated
- Liver CYP1A1 (fold change over untreated), Mean ([2]; 0.1 mg/kg PO QD D0-13, liver): 2.81 fold change over untreated
- Colon CYP1A1 (fold change over untreated), Mean ([2]; 1.0 mg/kg PO QD D0-13, colon): 8.34 fold change over untreated
- Liver CYP1A1 (fold change over untreated), Mean ([2]; 1.0 mg/kg PO QD D0-13, liver): 3.44 fold change over untreated
- CYP1A1 mRNA expression compared to untreated animals ([2]; 1.0 and 0.1 mg/kg oral, WT mice): significant increase
